According to ChEMBL document CHEMBL4385627, “Rational approaches, design strategies, structure activity relationship and mechanistic insights for therapeutic coumarin hybrids” (Bioorg Med Chem, 2019):
≈ marks a conversion by molar mass, not a printed value.

What was measured:
[1] = Inhibition of rat intestinal maltase-glucoamylase using p-nitrophenyl alpha-D-glucoside as substrate preincubated for 5 mins followed by substrate addition and measured after 30 mins by spectrophotometric analysis
Staphylococcus aureus [2] = experiment: Antimicrobial activity against Staphylococcus aureus incubated for 16 hrs by agar-well diffusion method; type: functional
Alpha glucosidase = Alpha glucosidase (Homo sapiens, UniProt O43451+P10253+P14410+Q2M2H8); experiment: Inhibition of alpha-glucosidase (unknown origin) using p-NPG as substrate preincubated for 5 mins followed by substrate addition and measured after 30 mins by spectrophotometric analysis; type: protein assay
A549 = experiment: Cytotoxicity against human A549 cells incubated for 24 hrs by MTT assay; type: functional, cell-based; settings: A549, 24 h
MDA-MB-231 = experiment: Cytotoxicity against human MDA-MB-231 cells incubated for 24 hrs by MTT assay; type: functional, cell-based; settings: MDA-MB-231, 24 h
Vero = experiment: Cytotoxicity against African green monkey Vero cells after 48 hrs by MTT assay; type: cell-based; settings: Chlorocebus sabaeus
Rattus norvegicus [3] = experiment: Antiinflammatory activity in Wistar rat assessed as reduction in formalin-induced paw edema volume at 20 mg/kg, po administered 1 hr prior to formalin challenge and measured over 0 to 6 hrs post formalin challenge by plethysmography relative to control; type: functional
[4] = Antioxidant activity assessed as ABTS radical cation scavenging ability
Aspergillus niger = experiment: Antifungal activity against Aspergillus niger MTCC 282 by agar dilution method; type: functional
Staphylococcus aureus [5] = experiment: Antibacterial activity against Staphylococcus aureus MTCC 96 by agar dilution method; type: functional
Escherichia coli = experiment: Antibacterial activity against Escherichia coli MTCC 443 by agar dilution method; type: functional
Candida albicans = experiment: Antifungal activity against Candida albicans MTCC 227 by agar dilution method; type: functional
Pseudomonas aeruginosa = experiment: Antibacterial activity against Pseudomonas aeruginosa MTCC 1688 by agar dilution method; type: functional
Aspergillus clavatus = experiment: Antifungal activity against Aspergillus clavatus MTCC 1323 by agar dilution method; type: functional
MDA-MB-435 = experiment: Growth inhibition of human MDA-MB-435 cells by SRB assay; type: functional
Rattus norvegicus [6] = experiment: Antitumor activity against NMU challenged Sprague-Dawley rat assessed as tumor volume at 5 mg/kg, po administered once per day for 6 weeks via gavage followed by NMU post challenge for 2 weeks (reference value: 4.8 +/- 0.14 mm3); type: functional
MCF7 = experiment: Growth inhibition of human MCF7 cells by SRB assay; type: functional
Leishmania major [7] = experiment: Antileishmanial activity against Leishmania major at 10 uM incubated for 72 hrs by MTT assay relative to control; type: functional
Leishmania major [8] = experiment: Antileishmanial activity against Leishmania major at 100 uM incubated for 72 hrs by MTT assay relative to control; type: functional
Leishmania major [9] = experiment: Antileishmanial activity against Leishmania major at 0.1 uM incubated for 72 hrs by MTT assay relative to control; type: functional
Leishmania major [10] = experiment: Antileishmanial activity against Leishmania major at 1 uM incubated for 72 hrs by MTT assay relative to control; type: functional
HOP-92 = experiment: Growth inhibition of human HOP92 cells at 10 uM after 48 hrs by SRB assay relative to control; type: functional; settings: HOP-92, 48 h, read-out: GI
[11] = Growth inhibition of BHK21 cells at 100 uM incubated for 48 hrs by SRB assay relative to control; type: cell-based, Mesocricetus auratus, BHK-21; settings: hamster, read-out: GI
[12] = Growth inhibition of BHK21 cells at 1 uM incubated for 48 hrs by SRB assay relative to control; type: cell-based, Mesocricetus auratus, BHK-21; settings: hamster, read-out: GI
[13] = Growth inhibition of BHK21 cells at 0.1 uM incubated for 48 hrs by SRB assay relative to control; type: cell-based, Mesocricetus auratus, BHK-21; settings: hamster, read-out: GI
[14] = Growth inhibition of BHK21 cells at 10 uM incubated for 48 hrs by SRB assay relative to control; type: cell-based, Mesocricetus auratus, BHK-21; settings: hamster, read-out: GI
Lactobacillus jensenii = experiment: Inhibition of Lactobacillus jensenii ATCC 25258 assessed as reduction in number of cells by measuring turbidity after 24 hrs; type: organism-based; settings: ATCC 25258, 24 h
HeLa = experiment: Cytotoxicity against human HeLa cells after 24 hrs by MTT assay; type: cell-based
Trichomonas vaginalis = experiment: Trichomonacidal against metronidazole-susceptible Trichomonas vaginalis after 48 hrs by trypan blue exclusion assay; type: functional, organism-based
Spermatozoa = experiment: Spermicidal activity against human spermatozoa shaken for 10 secs by phase contrast microscopy; type: functional, cell-based
[15] = Inhibition of calf intestinal alkaline phosphatase using p-nitrophenyl phosphate as substrate preincubated for 10 mins followed by substrate addition and measured after 30 mins by spectrometry based assay; design: species or system Bos taurus
[16] = Inhibition of calf ALR2 using DL-glyceraldehyde as substrate preincubated for 5 mins followed by NADPH addition and measured after 10 mins by spectrophotometric analysis; design: species or system Bos taurus
[17] = Inhibition of bovine kidney ALR1 using sodium D-glucoronic acid as substrate preincubated for 5 mins followed by NADPH addition and measured after 10 mins by spectrophotometric analysis; design: species or system Bos taurus
Cholinesterase = Cholinesterase (Homo sapiens, UniProt P06276); experiment: Inhibition of human plasma BuChE using butyrylthiocholine iodide as substrate preincubated for 5 mins followed by substrate addition and measured at 2 mins interval by Ellman's method
[18] = Antioxidant activity assessed as superoxide anion radical scavenging activity by cyclic voltammetric analysis; type: functional
NCI-H157 [19] = experiment: Growth inhibition of human NCI-H157 cells at 1 uM incubated for 48 hrs by SRB assay relative to control; type: functional; settings: NCI-H157, 48 h, read-out: GI
NCI-H157 [20] = experiment: Growth inhibition of human NCI-H157 cells at 100 uM incubated for 48 hrs by SRB assay relative to control; type: functional; settings: NCI-H157, 48 h, read-out: GI
NCI-H157 [21] = experiment: Growth inhibition of human NCI-H157 cells at 10 uM incubated for 48 hrs by SRB assay relative to control; type: functional; settings: NCI-H157, 48 h, read-out: GI
NCI-H157 [22] = experiment: Growth inhibition of human NCI-H157 cells at 0.1 uM incubated for 48 hrs by SRB assay relative to control; type: functional; settings: NCI-H157, 48 h, read-out: GI
Acetylcholinesterase = Acetylcholinesterase (Homo sapiens, UniProt P22303); experiment: Inhibition of human recombinant AchE using acetylthiocholine iodide as substrate preincubated for 5 mins followed by substrate addition and measured at 2 mins interval by Ellman's method
[23] = target: Amyloid-beta precursor protein (Homo sapiens) (UniProt P05067); experiment: Inhibition of amyloid beta (1 to 40) (unknown origin) aggregation at 1 uM incubated for 1 hr by thioflavin T fluorescence spectroscopic method relative to control
[24] = Inhibition of Saccharomyces cerevisiae alpha-glucosidase using p-nitrophenyl-alpha-D-glucopyranoside as substrate preincubated for 10 mins followed by substrate addition and measured after 30 mins by spectrophotometric analysis
Urease = Urease (Canavalia ensiformis, UniProt P07374); experiment: Inhibition of jack bean urease incubated for 30 mins by indophenol method
A498 = experiment: Growth inhibition of human A498 cells at 10 uM after 48 hrs by SRB assay relative to control; type: functional; settings: A498, 48 h, read-out: GI

Acetylcholinesterase, sequence (P22303 whole entry): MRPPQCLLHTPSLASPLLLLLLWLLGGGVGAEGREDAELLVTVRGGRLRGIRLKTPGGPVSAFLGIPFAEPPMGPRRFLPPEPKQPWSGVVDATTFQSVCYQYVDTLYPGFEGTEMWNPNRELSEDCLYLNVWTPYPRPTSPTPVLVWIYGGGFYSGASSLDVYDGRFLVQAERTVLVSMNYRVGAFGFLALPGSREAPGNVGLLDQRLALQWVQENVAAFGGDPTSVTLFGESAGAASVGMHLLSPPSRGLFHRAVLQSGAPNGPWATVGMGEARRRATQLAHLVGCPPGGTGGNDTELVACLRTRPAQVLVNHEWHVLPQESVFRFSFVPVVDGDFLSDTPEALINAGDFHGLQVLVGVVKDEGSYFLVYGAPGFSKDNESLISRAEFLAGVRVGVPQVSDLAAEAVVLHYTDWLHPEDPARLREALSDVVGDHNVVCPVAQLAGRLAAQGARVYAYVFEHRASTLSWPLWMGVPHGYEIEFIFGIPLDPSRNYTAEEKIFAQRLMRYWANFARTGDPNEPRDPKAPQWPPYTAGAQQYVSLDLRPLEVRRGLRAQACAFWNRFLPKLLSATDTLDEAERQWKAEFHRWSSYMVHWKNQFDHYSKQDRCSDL
Cholinesterase, sequence (P06276 whole entry): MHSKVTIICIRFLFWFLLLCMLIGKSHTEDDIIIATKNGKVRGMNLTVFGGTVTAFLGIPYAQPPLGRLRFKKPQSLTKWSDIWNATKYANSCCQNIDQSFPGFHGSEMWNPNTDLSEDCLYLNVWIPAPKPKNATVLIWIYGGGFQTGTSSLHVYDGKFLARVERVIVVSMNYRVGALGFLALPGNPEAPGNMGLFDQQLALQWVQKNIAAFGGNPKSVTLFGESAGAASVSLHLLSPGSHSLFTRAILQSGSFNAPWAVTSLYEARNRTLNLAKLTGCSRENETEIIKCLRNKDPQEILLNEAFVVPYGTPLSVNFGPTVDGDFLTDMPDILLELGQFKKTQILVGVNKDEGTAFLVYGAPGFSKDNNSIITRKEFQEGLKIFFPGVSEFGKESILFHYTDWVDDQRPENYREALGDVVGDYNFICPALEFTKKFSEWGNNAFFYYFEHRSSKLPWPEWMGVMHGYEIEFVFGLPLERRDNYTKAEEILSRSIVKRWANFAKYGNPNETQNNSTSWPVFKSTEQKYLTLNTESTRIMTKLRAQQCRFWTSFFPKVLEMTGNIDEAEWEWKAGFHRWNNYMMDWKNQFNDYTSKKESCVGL
Amyloid-beta precursor protein (Homo sapiens), sequence (P05067 whole entry): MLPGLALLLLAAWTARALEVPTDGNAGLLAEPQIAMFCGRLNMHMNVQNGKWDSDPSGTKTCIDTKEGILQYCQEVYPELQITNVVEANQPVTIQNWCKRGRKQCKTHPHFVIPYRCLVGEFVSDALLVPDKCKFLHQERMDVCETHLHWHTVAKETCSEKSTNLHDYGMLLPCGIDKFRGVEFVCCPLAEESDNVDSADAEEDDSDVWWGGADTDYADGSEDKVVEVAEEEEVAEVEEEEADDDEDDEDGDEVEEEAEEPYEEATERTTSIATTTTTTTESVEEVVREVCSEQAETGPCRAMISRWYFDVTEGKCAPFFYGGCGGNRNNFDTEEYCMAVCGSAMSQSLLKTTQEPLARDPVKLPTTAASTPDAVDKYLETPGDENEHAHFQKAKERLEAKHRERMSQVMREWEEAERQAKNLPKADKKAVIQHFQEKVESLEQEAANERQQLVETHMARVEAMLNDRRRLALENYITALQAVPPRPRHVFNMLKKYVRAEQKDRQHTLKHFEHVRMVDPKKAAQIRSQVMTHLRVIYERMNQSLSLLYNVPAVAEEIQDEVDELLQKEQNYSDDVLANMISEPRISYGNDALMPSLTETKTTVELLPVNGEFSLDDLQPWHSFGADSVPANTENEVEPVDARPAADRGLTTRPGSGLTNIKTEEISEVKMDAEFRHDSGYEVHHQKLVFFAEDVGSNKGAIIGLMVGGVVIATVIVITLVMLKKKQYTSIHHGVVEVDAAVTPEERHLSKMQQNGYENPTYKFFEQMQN
Urease, sequence (P07374 whole entry): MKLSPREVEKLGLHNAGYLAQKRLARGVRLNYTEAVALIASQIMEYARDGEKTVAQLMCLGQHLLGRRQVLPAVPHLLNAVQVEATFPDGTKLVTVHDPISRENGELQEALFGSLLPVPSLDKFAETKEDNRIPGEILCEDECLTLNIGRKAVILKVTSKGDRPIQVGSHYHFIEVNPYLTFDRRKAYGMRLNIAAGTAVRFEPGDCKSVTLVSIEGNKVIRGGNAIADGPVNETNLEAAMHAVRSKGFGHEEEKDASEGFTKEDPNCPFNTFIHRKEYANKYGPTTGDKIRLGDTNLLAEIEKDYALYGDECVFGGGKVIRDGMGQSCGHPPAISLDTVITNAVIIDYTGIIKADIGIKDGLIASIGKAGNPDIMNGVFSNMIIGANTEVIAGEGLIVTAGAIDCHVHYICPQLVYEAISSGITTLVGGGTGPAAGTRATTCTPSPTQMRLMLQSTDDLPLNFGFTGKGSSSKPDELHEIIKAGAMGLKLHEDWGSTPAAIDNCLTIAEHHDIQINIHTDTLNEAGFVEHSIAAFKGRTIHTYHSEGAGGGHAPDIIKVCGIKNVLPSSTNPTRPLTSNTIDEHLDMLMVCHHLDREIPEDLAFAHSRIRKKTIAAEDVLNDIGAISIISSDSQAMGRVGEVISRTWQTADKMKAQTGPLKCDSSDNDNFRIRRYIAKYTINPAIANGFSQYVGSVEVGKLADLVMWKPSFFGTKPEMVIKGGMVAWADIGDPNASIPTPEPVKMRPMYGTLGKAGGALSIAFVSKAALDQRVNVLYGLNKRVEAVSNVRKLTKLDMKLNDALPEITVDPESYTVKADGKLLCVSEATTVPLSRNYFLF

COc1ccccc1N1C(=O)/C(=C/c2ccc(F)cc2)S/C1=N\NC(=O)c1cc2ccccc2oc1=O
IC50 [1]: 0.38 µM

O=C(O)c1cn(C2CC2)c2cc(N3CCNCC3)c(F)cc2c1=O [CIPROFLOXACIN]
MIC (Staphylococcus aureus [2]): 10 µg/mL (≈ 30.2 µM)

Cc1ccc(N2C(=O)/C(=C/c3ccc(F)cc3)S/C2=N\NC(=O)c2cc3ccccc3oc2=O)cc1
IC50 [1]: 0.07 µM
IC50 (Alpha glucosidase): 0.11 µM

O=c1oc2ccccc2cc1-c1cc(-c2ccc(Cl)cc2)nc(Cc2ccc(F)cc2)n1
IC50 (A549): 2.15 µM
IC50 (MDA-MB-231): 16.5 µM

O=Cc1c(-c2cc3cc(Br)ccc3oc2=O)[nH]c2ccccc12
IC50 (Vero): 100 µM

O=c1oc2ccc(Br)cc2cc1-c1nc2ccccc2[nH]1
inhibition in vivo at 20 mg/kg (Rattus norvegicus [3]): 45.5%

CCOC(=O)C(C)(C)Oc1ccc(C(=O)c2cc3cc([N+](=O)[O-])ccc3oc2=O)cc1
IC50 [4]: 18.6 µM

C/C(=N\NC(=S)Nc1ccc(F)cc1F)c1cc2ccccc2oc1=O
MIC (Aspergillus niger): 100 µg/mL (≈ 268 µM)
MIC (Staphylococcus aureus [5]): 50 µg/mL (≈ 134 µM)
MIC (Escherichia coli): 50 µg/mL (≈ 134 µM)
MIC (Candida albicans): 100 µg/mL (≈ 268 µM)
MIC (Pseudomonas aeruginosa): 100 µg/mL (≈ 268 µM)
MIC (Aspergillus clavatus): 100 µg/mL (≈ 268 µM)

O=C(/C=C/c1ccc(OCCN2CCCCC2)cc1)c1cc2ccccc2oc1=O
GI50 (MDA-MB-435): 75.3 µg/mL (≈ 187 µM)
Activity (Rattus norvegicus [6]): 3.3 mm3
GI50 (MCF7): < 10 µg/mL

O=C(Nc1nc2ccccc2[nH]1)c1cc2ccccc2oc1=O
inhibition in vivo at 20 mg/kg (Rattus norvegicus [3]): 42.9%

C[C@@H]1[C@H](O)[C@@H](C)/C=C/C=C/C=C/C=C/C=C/C=C/C=C/[C@H](O[C@@H]2O[C@H](C)[C@@H](O)[C@H](N)[C@@H]2O)C[C@@H]2O[C@](O)(C[C@@H](O)C[C@@H](O)[C@H](O)CC[C@@H](O)C[C@@H](O)CC(=O)O[C@H]1C)C[C@H](O)[C@H]2C(=O)O [AMPHOTERICIN B]
inhibition at 10 µM (Leishmania major [7]): 76.3%
inhibition at 100 µM (Leishmania major [8]): 79.8%
inhibition at 0.1 µM (Leishmania major [9]): 69.9%
inhibition at 1 µM (Leishmania major [10]): 74.8%

O=c1oc2ccc(Cl)cc2cc1-c1nc2ccccc2[nH]1
inhibition in vivo at 20 mg/kg (Rattus norvegicus [3]): 46.8%

COc1ccc(-c2cc(-c3cc4ccccc4oc3=O)nc(Cc3ccc(F)cc3)n2)cc1
IC50 (A549): 16.1 µM

Cc1cccc(-n2c(-c3cc4ccccc4oc3=O)cs/c2=N/NC(=O)c2cc3ccccc3oc2=O)c1C
inhibition at 10 µM (Leishmania major [7]): 66.2%
inhibition at 100 µM (Leishmania major [8]): 70.4%
inhibition at 0.1 µM (Leishmania major [9]): 53.9%
inhibition at 1 µM (Leishmania major [10]): 60.7%

Cc1cc(=O)oc2cc(Oc3nc(-c4ccc(B(O)O)s4)cn4c(-c5ccc(B(O)O)s5)cnc34)ccc12
inhibition of growth at 10 µM (HOP-92): 92.3%

Cc1cc(C)cc(-n2c(-c3cc4ccccc4oc3=O)cs/c2=N/NC(=O)c2cc3ccccc3oc2=O)c1
inhibition at 48 h, 100 µM [11]: 66.8%
inhibition at 48 h, 1 µM [12]: 59.4%
inhibition at 48 h, 0.1 µM [13]: 55.5%
inhibition at 48 h, 10 µM [14]: 64.2%

O=C(c1ccc(O)cc1)C(c1c(O)c2ccccc2oc1=O)N1CCCCC1 (stereo not given)
IC50 (Lactobacillus jensenii): > 1000 µg/mL
IC50 (HeLa): 234 µg/mL (≈ 617 µM)
IC50 (Trichomonas vaginalis): 29.4 µM
IC50 (Spermatozoa): 500 µM

Cc1ccc(-n2c(-c3cc4ccccc4oc3=O)cs/c2=N/NC(=O)c2cc3ccccc3oc2=O)c(C)c1
IC50 [15]: 1.38 µM

C/C(=N\Nc1nc(-c2cc3ccccc3oc2=O)cs1)c1ccccc1Br
IC50 [16]: 0.16 µM
IC50 [17]: 34.7 µM

O=C(Cc1cc(=O)oc2cc(O)ccc12)NCCCCCCCNc1c2c(nc3ccccc13)CCCC2
IC50 (Cholinesterase): 0.063 to 0.0635 µM

O=C(OCc1cc(=O)oc2c(O)c(O)ccc12)c1cc(O)c(O)c(O)c1
IC50 [18]: 64 µM

C/C(=N\Nc1nc(-c2cc3ccccc3oc2=O)cs1)c1ccccc1
IC50 [16]: 0.12 µM
IC50 [17]: 2.94 µM

CC(C)(C)NC(=O)c1c(-c2ccccc2)nc(SCc2cc(=O)oc3ccc4ccccc4c23)[nH]c1=O
MIC (Staphylococcus aureus [2]): 2.5 µg/mL (≈ 4.89 µM)

Cc1ccc(-n2c(-c3cc4ccccc4oc3=O)cs/c2=N/NC(=O)c2cc3ccccc3oc2=O)cc1C
inhibition of growth at 1 µM (NCI-H157 [19]): 53.8%
inhibition of growth at 100 µM (NCI-H157 [20]): 65%
inhibition of growth at 10 µM (NCI-H157 [21]): 57.3%
inhibition of growth at 0.1 µM (NCI-H157 [22]): 45.5%

CCOC(=O)C(C)(C)Oc1ccc(C(=O)c2cc3cc(C)ccc3oc2=O)cc1
IC50 [4]: 8.51 µM

O=C(Cc1cc(=O)oc2cc(O)ccc12)NCCCNCCNCCCNc1c2c(nc3ccccc13)CCCC2
IC50 (Acetylcholinesterase): 0.038 µM

O=C(Cc1cc(=O)oc2cc(O)ccc12)NCCCCCCCCNc1c2c(nc3ccccc13)CCCC2
inhibition [23]: 82%

O=C(N/N=C/c1cc(Cl)ccc1O)c1nc(-c2cc3ccccc3oc2=O)cs1
IC50 [24]: 8.23 µM

C/C(=N\Nc1nc(-c2cc3ccccc3oc2=O)cs1)c1ccc(Br)cc1
IC50 [16]: 0.11 µM
IC50 [17]: 1.71 µM

O=C(N/N=C/c1cc(Cl)cc(Cl)c1O)c1nc(-c2cc3ccccc3oc2=O)cs1
IC50 [24]: 6.24 µM

NC(=S)N1N=C(c2cc3ccccc3oc2=O)CC1c1ccccc1 (stereo not given)
IC50 (Urease): 0.358 µM

Nc1cc(Cl)ccc1/C(=N/Nc1nc(-c2cc3ccccc3oc2=O)cs1)c1ccccc1
IC50 [16]: 0.459 µM

Cc1cc(=O)oc2cc(Oc3nc(-c4ccc(B(O)O)cc4)cn4c(-c5ccc(B(O)O)cc5)cnc34)ccc12
inhibition of growth at 10 µM (A498): 90.1%
